In ChEMBL document CHEMBL1201862, “PubChem BioAssay data set” (2004):
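Growth conditions: 96-well plates. Treatment: test compound, 48 hours, 5 concentrations. Analysis: linear interpolation between bracketing concentrations; unreached endpoints set to highest concentration. The concentration for 50% growth inhibition is given as GI50.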 Activity calls are given as the source filed them. No stated cut-off is given here; in the data, active = GI50 up to about 1.1 µM and inactive = higher.

Experiments:
Assay in all cases: DTP human tumour cell line panel, 48 h
[1] = tested on: DLD-1
[2] = tested on: DMS-273
[3] = tested on: KM-20L2
[4] = tested on: LXFL 529
[5] = tested on: RXF 631
[6] = tested on: XF498
[7] = tested on: BT-549
[8] = tested on: SNB-78
[9] = tested on: HOP-18

SMILES | GI50 [1] | GI50 [2] | GI50 [3] | GI50 [4] | GI50 [5] | GI50 [6] | GI50 [7] | GI50 [8] | GI50 [9]
Cc1ccc(C2(C)NC(=S)N(NC(N)=S)C2=S)cc1 (stereo not drawn) | 71.1 µM (inactive) | > 100 µM (inactive) | > 100 µM (inactive) | 71.8 µM (inactive) | > 100 µM (inactive) | > 100 µM (inactive) |  |  | 
O=c1c(Cl)c(Cl)cnn1CCCl | 1.47 µM (inactive) | 5.27 µM (inactive) | 13 µM (inactive) | 1.62 µM (inactive) |  | 3 µM (inactive) | 3.47 µM (inactive) | 11.8 µM (inactive) | 
CC/C(Cl)=N\OC(=O)Nc1ccccc1OC(F)(F)F |  |  |  |  |  |  | 3.11 µM (inactive) |  | 
O=C(NO)C(=O)Nc1cc(Cl)ccc1Cl | > 100 µM (inactive) | 42.7 µM (inactive) | > 100 µM (inactive) | > 100 µM (inactive) | 62.7 µM (inactive) |  |  | > 100 µM (inactive) | > 100 µM (inactive)
CC(C)=CCN1c2ccccc2[C@@]2(CC=C(C)C)CCN(C)[C@@H]12 [(+)-DEBROMOFLUSTRAMINE B] |  |  |  |  |  |  | 21.9 µM (inactive) |  | 
COc1ccc2c3c([nH]c2c1CC=C(C)C)C(=O)C=C(C)C3=O | > 25 µM (inactive) | > 25 µM (inactive) | > 25 µM (inactive) | 15.8 µM (inactive) |  | > 25 µM (inactive) |  |  | 12.1 µM (inactive)
Cc1cc(S(=O)(=O)N/C(=N/N)NCCc2ccccc2)c(S)cc1Cl |  |  |  |  |  |  | 15.4 µM (inactive) |  | 
Cc1ccc(-c2n[nH]c(CC#N)n2)cc1 |  |  |  |  |  |  | > 100 µM (inactive) |  | 
CCSC(=O)C1(C)OC2CCCCC2C1=O (stereo not drawn) | > 100 µM (inactive) | > 100 µM (inactive) | > 100 µM (inactive) | > 100 µM (inactive) |  |  |  | > 100 µM (inactive) | > 100 µM (inactive)
CC(C)=Cc1cc(CCC/C(C)=C/Cc2c(O)cc(C)c(C(=O)O)c2O)co1 |  |  |  |  |  |  | > 100 µM (inactive) |  | 
N#C/C(=N/Nc1[nH]cnc1C(N)=O)C(=O)Nc1ccccc1 |  |  |  |  |  |  | > 100 µM (inactive) |  | 
CC(C)CCNC(=O)C(CC(C)C)NC(=O)[C@H]1O[C@@H]1C(=O)O (stereo partly drawn) |  |  |  |  |  |  | > 100 µM (inactive) |  | 
CCOC(=O)/C([O-])=C(\C(=O)OCC)[n+]1c(C)n(C)c2ccccc21 | > 100 µM (inactive) | > 100 µM (inactive) | > 100 µM (inactive) | > 100 µM (inactive) |  |  |  | > 100 µM (inactive) | > 100 µM (inactive)
N[C@@H]1CCN(c2c(F)cc3c(=O)c(C(=O)O)cn4c3c2Oc2c-4ccc3c2ccc2ccccc23)C1 |  |  |  |  |  |  | > 100 µM (inactive) |  | 
O=C1C(c2c(O)[nH]c3ccc(F)cc23)=Nc2ccccc21 |  |  |  |  |  |  | > 100 µM (inactive) |  | 
Cc1ccccc1NC(=O)Cc1csc2[n+]1C(=O)/C(=C/c1ccc([N+](=O)[O-])cc1)S2 |  |  |  |  |  |  | 13 µM (inactive) |  | 
O=C(c1nc2ccccc2nc1O)C(O)c1ccco1 (stereo not drawn) |  | > 100 µM (inactive) | 56.5 µM (inactive) | 86.3 µM (inactive) |  | > 100 µM (inactive) |  | > 100 µM (inactive) | 
CCCCn1c(N)c(-c2nc3ccccc3o2)sc1=S |  |  |  |  |  |  | 26.3 µM (inactive) |  | 
C#CCn1c(=O)c(C)cn(/C(=C\C(=O)OCC)C(=O)OCC)c1=O |  |  |  |  |  |  | 9.71 µM (inactive) |  | 
Cc1ccc(NC(=O)CCC(=O)C2Cc3ccccc3C2=O)cc1C (stereo not drawn) | > 100 µM (inactive) | > 100 µM (inactive) | > 100 µM (inactive) | > 100 µM (inactive) |  | > 100 µM (inactive) |  | > 100 µM (inactive) | > 100 µM (inactive)
COC1=CC(=O)c2c(c(-c3csc(C)n3)cn2C)C1=O |  |  |  |  |  |  | 22.8 µM (inactive) |  | 
CC(C)(CN1C(=O)C(Cl)=C(Cl)C1=O)CN1C(=O)C(Cl)=C(Cl)C1=O | 3.38 µM (inactive) | 6.92 µM (inactive) | 16.6 µM (inactive) | 6.5 µM (inactive) |  |  |  | 19 µM (inactive) | 19.4 µM (inactive)
Cc1cc(C)n(-c2nc(-n3nc(C)cc3C)nc(-n3nc(C)cc3C)n2)n1 |  |  |  |  |  |  | > 100 µM (inactive) |  | 
COc1ccc(CN2C(=O)C(Cc3cc(OC)c(OC)c(C)c3OC)N(C(=O)OC(C)C)C(=O)/C2=C/c2cc(OC)c(OC)c(C)c2OC)cc1 (stereo not drawn) | > 100 µM (inactive) | 23.6 µM (inactive) | > 100 µM (inactive) | 12.7 µM (inactive) | > 100 µM (inactive) |  |  |  | 16.3 µM (inactive)
COC(=O)C1CCC(=S)N1C(=O)c1ccccc1 (stereo not drawn) |  |  |  |  |  |  | > 100 µM (inactive) |  | 
C=CCN1C2Cc3cc(OC)c(OC)cc3C1Cc1cc(OC)c(OC)cc12 | > 100 µM (inactive) |  | > 100 µM (inactive) | > 100 µM (inactive) |  | > 100 µM (inactive) |  | > 100 µM (inactive) | 
C[N+](C)(Cc1ccc(NC(=O)CCCC(=O)ON2C(=O)CCC2=O)cc1)c1ccccc1 | < 0.01 µM (active) | < 0.01 µM (active) | < 0.01 µM (active) | < 0.01 µM (active) |  | > 1 µM (active) |  |  | < 0.01 µM (active)
